Data reported in patent publication US9302999B2, “Substituted triazoles as herbicides” (E. I. DU PONT DE NEMOURS AND COMPANY, priority 2012, dated 2016).

Assays:
Format in all cases: in vivo
[1] = system: lambsquarters (Chenopodium album); assay: Test D pre-/postemergence: lambsquarters
Excerpt: (§1) Seeds of plant species selected from bluegrass (annual bluegrass, Poa annua), blackgrass (Alopecurus myosuroides), canarygrass (Phalaris minor), chickweed (common chickweed, Stellaria media), galium (catchweed bedstraw, Galium aparine), bromegrass, downy (downy bromegrass, Bromus tectorum), field poppy (Papaver rhoeas), field violet (Viola arvensis), foxtail, green (green foxtail, Setaria viridis), deadnettle (henbit deadnettle, Lamium amplexicaule), ryegrass, Italian (Italian ryegrass, Lolium multiflorum), kochia (Kochia scoparia), lambsquarters (Chenopodium album), oilseed rape (Brassica napus), pigweed (Amaranthus retroflexus), Russian thistle (Salsola iberica), chamomile (scentless chamomile, Matricaria inodora), speedwell (bird's-eye speedwell, Veronica persica), barley, spring (spring barley, Hordeum vulgare), wheat, spring (spring wheat, Triticum aestivum), buckwheat, wild (wild buckwheat, Polygonum convolvulus), mustard, wild (wild mustard, Sinapis arvensis), oat, wild (wild oat, Avena fatua), radish, wild (wild radish, Raphanus raphanistrum), windgrass (Apera spica-venti), barley, winter (winter barley, Hordeum vulgare), and wheat, winter (winter wheat, Triticum aestivum) were planted into a silt loam soil and treated preemergence with test chemicals formulated in a non-phytotoxic solvent mixture which included a surfactant. At the same time, these same crop and weed species were planted in pots containing the planting medium comprising spaghnum peat moss, vermiculite, wetting agent and starter nutrients and treated with postemergence applications of the test chemicals formulated in the same manner. Plants ranged in height from 2 to 18 cm (1- to 4-leaf stage).
(§2) Treated plants and controls were maintained in a controlled growth environment for 14 to 21 days after which time all species were compared to controls and visually evaluated. Plant response ratings, summarized in Table D, are based on a scale of 0 to 100 where 0 is no effect and 100 is complete control. A dash (-) response means no test result.

[2] = system: oat, wild (wild oat, Avena fatua); assay: Test D pre-/postemergence: oat, wild
Excerpt: as §1, §2

[3] = system: pigweed (Amaranthus retroflexus); assay: Test D pre-/postemergence: pigweed
Excerpt: as §1, §2

[4] = system: wheat, winter (winter wheat, Triticum aestivum); assay: Test D pre-/postemergence: wheat, winter
Excerpt: as §1, §2

[5] = Postemergence, 31 g ai/ha, scale 0 to 100 (0 no effect, 100 complete control)
[6] = Postemergence, 62 g ai/ha, scale 0 to 100 (0 no effect, 100 complete control)
[7] = Postemergence, 125 g ai/ha, scale 0 to 100, 0 no effect, 100 complete control
[8] = Postemergence, 250 g ai/ha, scale 0 to 100 (0 no effect, 100 complete control)
[9] = Preemergence, 31 g ai/ha, scale 0 to 100, 0 no effect, 100 complete control
[10] = Preemergence, 62 g ai/ha, scale 0 to 100
[11] = Preemergence, 125 g ai/ha, scale 0 to 100
[12] = Preemergence, 250 g ai/ha, scale 0 to 100
[13] = Postemergence, 16 g ai/ha, scale 0 to 100

**Q.** `FC(F)(F)COc1nn(-c2ccc(C(F)(F)F)cc2)nc1Cc1ccnc(C(F)(F)F)c1` [Compound 14, 4-[[5-(2,2,2-trifluoroethoxy)-2-[4-(trifluoromethyl)phenyl]-2H-1,2,3-triazol-4-yl]methyl]-2-(trifluoromethyl)pyridine] was tested. Which “Plant response rating: Lambsquarters” value [1, 5] did it give?
**A.** 80

**Q.** And the “Plant response rating: Lambsquarters” value [1, 6]?
**A.** 80

**Q.** What about the “Plant response rating: Lambsquarters” value [1, 7] of the same molecule?
**A.** 100

**Q.** And the “Plant response rating: Lambsquarters” value [1, 8]?
**A.** 100

**Q.** And the “Plant response rating, Lambsquarters” value [1, 9]?
**A.** 0

**Q.** And the “Plant response rating, Lambsquarters” value [1, 10]?
**A.** 40

**Q.** And the “Plant response rating, Lambsquarters” value [1, 11]?
**A.** 60

**Q.** And the “Plant response rating, Lambsquarters” value [1, 12]?
**A.** 75

**Q.** And the “Plant response rating: Oat, Wild” value [2, 5]?
**A.** 15

**Q.** And the “Plant response rating: Oat, Wild” value [2, 6]?
**A.** 25

**Q.** What about the “Plant response rating: Oat, Wild” value [2, 7] of the same molecule?
**A.** 40

**Q.** And the “Plant response rating: Oat, Wild” value [2, 8]?
**A.** 55

**Q.** And the “Plant response rating, Oat, Wild” value [2, 9]?
**A.** 0

**Q.** And the “Plant response rating, Oat, Wild” value [2, 10]?
**A.** 20

**Q.** And the “Plant response rating, Oat, Wild” value [2, 11]?
**A.** 20

**Q.** And the “Plant response rating, Oat, Wild” value [2, 12]?
**A.** 50

**Q.** What about the “Plant response rating: Pigweed” value [3, 5] of the same molecule?
**A.** 100

**Q.** What about the “Plant response rating: Pigweed” value [3, 6] of the same molecule?
**A.** 100

**Q.** What about the “Plant response rating: Pigweed” value [3, 7] of the same molecule?
**A.** 100

**Q.** What about the “Plant response rating: Pigweed” value [3, 8] of the same molecule?
**A.** 100

**Q.** And the “Plant response rating, Pigweed” value [3, 9]?
**A.** 20

**Q.** And the “Plant response rating, Pigweed” value [3, 10]?
**A.** 70

**Q.** What about the “Plant response rating, Pigweed” value [3, 11] of the same molecule?
**A.** 90

**Q.** And the “Plant response rating, Pigweed” value [3, 12]?
**A.** 100

**Q.** What about the “Plant response rating: Wheat, Winter” value [4, 5] of the same molecule?
**A.** 5

**Q.** What about the “Plant response rating: Wheat, Winter” value [4, 6] of the same molecule?
**A.** 5

**Q.** And the “Plant response rating: Wheat, Winter” value [4, 7]?
**A.** 15

**Q.** And the “Plant response rating: Wheat, Winter” value [4, 8]?
**A.** 25

**Q.** What about the “Plant response rating, Wheat, Winter” value [4, 9] of the same molecule?
**A.** 0

**Q.** What about the “Plant response rating, Wheat, Winter” value [4, 10] of the same molecule?
**A.** 0

**Q.** And the “Plant response rating, Wheat, Winter” value [4, 11]?
**A.** 10

**Q.** And the “Plant response rating, Wheat, Winter” value [4, 12]?
**A.** 20

**Q.** What does the source list for `COc1nn(-c2ccc(C(F)(F)F)cc2)nc1Cc1ccnc(C(F)(F)F)c1` [Compound 15, 4-[[5-methoxy-2-[4-(trifluoromethyl)phenyl]-2H-1,2,3-triazol-4-yl]methyl]-2-(trifluoromethyl)pyridine]?
**A.** Plant response rating: Lambsquarters [1, 5]: 100; Plant response rating: Lambsquarters [1, 6]: 100; Plant response rating: Lambsquarters [1, 7]: 100; Plant response rating: Lambsquarters [1, 8]: 100; Plant response rating, Lambsquarters [1, 13]: 50; Plant response rating, Lambsquarters [1, 9]: 0; Plant response rating, Lambsquarters [1, 10]: 90; Plant response rating, Lambsquarters [1, 11]: 100; Plant response rating, Lambsquarters [1, 12]: 100; Plant response rating: Oat, Wild [2, 5]: 10; Plant response rating: Oat, Wild [2, 6]: 10; Plant response rating: Oat, Wild [2, 7]: 30; Plant response rating: Oat, Wild [2, 8]: 40; Plant response rating, Oat, Wild [2, 13]: 10; Plant response rating, Oat, Wild [2, 10]: 15; Plant response rating, Oat, Wild [2, 11]: 40; Plant response rating, Oat, Wild [2, 12]: 100; Plant response rating: Pigweed [3, 5]: 80; Plant response rating: Pigweed [3, 6]: 80; Plant response rating: Pigweed [3, 7]: 100; Plant response rating: Pigweed [3, 8]: 100; Plant response rating, Pigweed [3, 13]: 80; Plant response rating, Pigweed [3, 9]: 20; Plant response rating, Pigweed [3, 10]: 70; Plant response rating, Pigweed [3, 11]: 98; Plant response rating, Pigweed [3, 12]: 100; Plant response rating: Wheat, Winter [4, 5]: 10; Plant response rating: Wheat, Winter [4, 6]: 15; Plant response rating: Wheat, Winter [4, 7]: 25; Plant response rating: Wheat, Winter [4, 8]: 35; Plant response rating, Wheat, Winter [4, 13]: 5; Plant response rating, Wheat, Winter [4, 9]: 0; Plant response rating, Wheat, Winter [4, 10]: 0; Plant response rating, Wheat, Winter [4, 11]: 0; Plant response rating, Wheat, Winter [4, 12]: 5

**Q.** What does the source list for `Cc1nn(-c2ccc(C(F)(F)F)cn2)nc1Oc1ccnc(C(F)(F)F)c1` [Compound 23]?
**A.** Plant response rating: Lambsquarters [1, 5]: 30; Plant response rating: Lambsquarters [1, 6]: 80; Plant response rating: Lambsquarters [1, 7]: 100; Plant response rating: Lambsquarters [1, 8]: 100; Plant response rating, Lambsquarters [1, 13]: 30; Plant response rating: Oat, Wild [2, 5]: 10; Plant response rating: Oat, Wild [2, 6]: 10; Plant response rating: Oat, Wild [2, 7]: 15; Plant response rating: Oat, Wild [2, 8]: 20; Plant response rating, Oat, Wild [2, 13]: 10; Plant response rating: Pigweed [3, 5]: 50; Plant response rating: Pigweed [3, 6]: 80; Plant response rating: Pigweed [3, 7]: 95; Plant response rating: Pigweed [3, 8]: 100; Plant response rating, Pigweed [3, 13]: 50; Plant response rating: Wheat, Winter [4, 5]: 5; Plant response rating: Wheat, Winter [4, 6]: 10; Plant response rating: Wheat, Winter [4, 7]: 15; Plant response rating: Wheat, Winter [4, 8]: 15; Plant response rating, Wheat, Winter [4, 13]: 0
